Laboratory results reported in patent US20260077071A1, “Targeted Delivery of Theranostic Agents” (Peter MacCallum Cancer Institute, priority 2022, published 2026).
Like-named read-outs stand apart in the source and are kept apart here. Square brackets hold non-standard residues; d marks the D form. Peptide text beside a SMILES is read from it. * marks the point of attachment. DOTA = O=C(O)CN1CCN(CC(=O)O)CCN(CC(=O)*)CCN(CC(=O)O)CC1; Phe(3,4,5-F3) = N[C@@H](Cc1cc(F)c(F)c(F)c1)C(=O)O; Phe(4-CF3) = N[C@@H](Cc1ccc(C(F)(F)F)cc1)C(=O)O; Phe(F5) = N[C@@H](Cc1c(F)c(F)c(F)c(F)c1F)C(=O)O; Phe(3,4-F2) = N[C@@H](Cc1ccc(F)c(F)c1)C(=O)O; Phe(4-Ac) = CC(=O)c1ccc(C[C@H](N)C(=O)O)cc1; Phe(4-CN) = N#Cc1ccc(C[C@H](N)C(=O)O)cc1; Phe(4-NH2) = Nc1ccc(C[C@H](N)C(=O)O)cc1; Phe(3-F) = N[C@@H](Cc1cccc(F)c1)C(=O)O; Phe(4-F) = N[C@@H](Cc1ccc(F)cc1)C(=O)O; 1Nal = N[C@@H](Cc1cccc2ccccc12)C(=O)O; NMeNle = CCCC[C@H](NC)C(=O)O; Sar = CNCC(=O)O

Biological target: T1, human full-length CCK-2 receptor (Homo sapiens, UniProt P32239)
T1 construct: stably transfected to over-express the human full-length CCK-2 receptor (A431-CCK-2R); expressed in transfected cells
T1 sequence (P32239 1-447): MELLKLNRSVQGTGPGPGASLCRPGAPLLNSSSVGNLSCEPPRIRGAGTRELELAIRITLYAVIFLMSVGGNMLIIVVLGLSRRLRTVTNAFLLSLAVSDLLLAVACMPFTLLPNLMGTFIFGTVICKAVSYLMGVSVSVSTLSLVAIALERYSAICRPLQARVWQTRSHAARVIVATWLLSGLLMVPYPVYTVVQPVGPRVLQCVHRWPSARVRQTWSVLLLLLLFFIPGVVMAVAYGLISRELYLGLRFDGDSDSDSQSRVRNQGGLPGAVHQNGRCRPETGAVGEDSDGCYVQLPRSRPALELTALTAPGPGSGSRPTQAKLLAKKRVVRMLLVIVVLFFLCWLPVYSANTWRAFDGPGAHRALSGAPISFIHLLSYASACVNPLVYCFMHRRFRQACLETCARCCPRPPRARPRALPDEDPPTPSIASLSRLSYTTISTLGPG
Experiment: Competitive ligand binding against [^177Lu]Lu-DOTA-CP04 in A431-CCK-2R cells
Procedure: CCK-2 receptor binding experiments were conducted using A431 (human epidermoid carcinoma) cells stably transfected to over-express the human full-length CCK-2 receptor (A431-CCK-2R). As a negative control, A431 cells stably transfected with an empty vector were analysed simultaneously (A431-EV). A431 cells were maintained in DMEM (Gibco, Australia) media supplemented with 10% foetal calf serum and 250 μg/mL G418 as described previously (Aloj L, et al., J Nucl Med., 2004, Mar; 45(3), 485-94). The affinity of peptides for the CCK-2R was evaluated using competitive binding assays against [^177Lu]Lu-DOTA-CP04 in A431-CCK-2R cells. Briefly, 48 h before the experiment cells were plated at a density of 650,000 cells per well in 6 well plates. On the day of the experiment the peptides were diluted in DMEM supplemented with 1% foetal calf serum to at least 7 different concentrations (0-400 nM) and approximately 50,000 cpm of [^177Lu]Lu-DOTA-CP04 was added to each dilution. Cells were washed twice in ice-cold binding buffer (DMEM supplemented with 1% foetal calf serum) and resuspended in 1.5 mL of the pre-prepared compound mix before being incubated at 37° C. for 1 h. Post-incubation the media was removed and kept for analysis (unbound fraction) and the cells were washed twice in ice-cold binding buffer, which was pooled with the unbound fraction. Finally, 1 M NaOH was added to the cells and allowed to incubate for 5 min before lysates were collected (bound fraction). A small volume of lysate was kept aside to determine protein concentration using the Pierce® BCA protein assay kit (Thermo Fisher, Australia). All samples were analysed using the Perkin Elmer 2480 Wizard2™ gamma counter (PerkinElmer, Massachusetts, USA) and were normalised according to protein concentration. Half-maximal inhibitory concentrations (IC50) were determined using nonlinear regression calculated using GraphPad Prism Software (GraphPad Software, California, USA).
The compounds were evaluated for their ability to disrupt the binding between CCK-2 receptor (CCK-2R) and [^177Lu]Lu-DOTA-CP04 using the methodology described above and compared to comparative example-2 (FIG. 2; Table 5).

[1] = modified peptides based on Peptide C (Table 4), read-out: IC50

Compound	IC50 [1] [nM]	other results
CCCC[C@@H](C(=O)N[C@@H](CC(=O)O)C(=O)N[C@@H](Cc1ccc(N)cc1)C(N)=O)N(C)C(=O)[C@H](Cc1c[nH]c2ccccc12)NC(=O)CN(C)C(=O)[C@H](Cc1ccc(O)cc1)NC(=O)[C@H](C)NC(=O)[C@@H](CCC(=O)O)NC(=O)[C@@H](CCC(=O)O)NC(=O)[C@@H](CCC(=O)O)NC(=O)[C@@H](C)NC(=O)[C@@H](CCC(=O)O)NC(=O)[C@H](N)CCC(=O)O [M] (H-[dE][dE][dA][dE][dE][dE]AY[Sar]W[NMeNle]D[Phe(4-NH2)]-NH2; N-terminus assumed)	0.741 ± 0.064	
CCCC[C@@H](C(=O)N[C@@H](CC(=O)O)C(=O)N[C@@H](Cc1cc(F)c(F)c(F)c1)C(N)=O)N(C)C(=O)[C@H](Cc1c[nH]c2ccccc12)NC(=O)CN(C)C(=O)[C@H](Cc1ccc(O)cc1)NC(=O)[C@H](C)NC(=O)[C@@H](CCC(=O)O)NC(=O)[C@@H](CCC(=O)O)NC(=O)[C@@H](CCC(=O)O)NC(=O)[C@@H](C)NC(=O)[C@@H](CCC(=O)O)NC(=O)[C@H](N)CCC(=O)O [N] (H-[dE][dE][dA][dE][dE][dE]AY[Sar]W[NMeNle]D[Phe(3,4,5-F3)]-NH2; N-terminus assumed)	0.444 ± 0.032	
CCCC[C@@H](C(=O)N[C@@H](CC(=O)O)C(=O)N[C@@H](Cc1ccc(F)cc1)C(N)=O)N(C)C(=O)[C@H](Cc1c[nH]c2ccccc12)NC(=O)CN(C)C(=O)[C@H](Cc1ccc(O)cc1)NC(=O)[C@H](C)NC(=O)[C@@H](CCC(=O)O)NC(=O)[C@@H](CCC(=O)O)NC(=O)[C@@H](CCC(=O)O)NC(=O)[C@@H](C)NC(=O)[C@@H](CCC(=O)O)NC(=O)[C@H](N)CCC(=O)O [O] (H-[dE][dE][dA][dE][dE][dE]AY[Sar]W[NMeNle]D[Phe(4-F)]-NH2; N-terminus assumed)	0.368 ± 0.04	
CCCC[C@@H](C(=O)N[C@@H](CC(=O)O)C(=O)N[C@@H](Cc1ccc(C(F)(F)F)cc1)C(N)=O)N(C)C(=O)[C@H](Cc1c[nH]c2ccccc12)NC(=O)CN(C)C(=O)[C@H](Cc1ccc(O)cc1)NC(=O)[C@H](C)NC(=O)[C@@H](CCC(=O)O)NC(=O)[C@@H](CCC(=O)O)NC(=O)[C@@H](CCC(=O)O)NC(=O)[C@@H](C)NC(=O)[C@@H](CCC(=O)O)NC(=O)[C@H](N)CCC(=O)O [P] (H-[dE][dE][dA][dE][dE][dE]AY[Sar]W[NMeNle]D[Phe(4-CF3)]-NH2; N-terminus assumed)	1.14	
CCCC[C@@H](C(=O)N[C@@H](CC(=O)O)C(=O)N[C@@H](Cc1cccc2ccccc12)C(N)=O)N(C)C(=O)[C@H](Cc1c[nH]c2ccccc12)NC(=O)CN(C)C(=O)[C@H](Cc1ccc(O)cc1)NC(=O)[C@H](C)NC(=O)[C@@H](CCC(=O)O)NC(=O)[C@@H](CCC(=O)O)NC(=O)[C@@H](CCC(=O)O)NC(=O)[C@@H](CCC(=O)O)NC(=O)[C@@H](CCC(=O)O)NC(=O)[C@@H](C)N [Peptide A] (H-[dA][dE][dE][dE][dE][dE]AY[Sar]W[NMeNle]D[1Nal]-NH2)		loss of binding affinity / activity (D-Ala analogue versus baseline comparative example-1): greater than 10 fold
CCCC[C@@H](C(=O)N[C@@H](CC(=O)O)C(=O)N[C@@H](Cc1cccc2ccccc12)C(N)=O)N(C)C(=O)[C@H](Cc1c[nH]c2ccccc12)NC(=O)CN(C)C(=O)[C@H](Cc1ccc(O)cc1)NC(=O)[C@H](C)NC(=O)[C@@H](CCC(=O)O)NC(=O)[C@@H](CCC(=O)O)NC(=O)[C@@H](CCC(=O)O)NC(=O)[C@@H](C)NC(=O)[C@@H](CCC(=O)O)NC(=O)[C@H](N)CCC(=O)O [Peptide C] (H-[dE][dE][dA][dE][dE][dE]AY[Sar]W[NMeNle]D[1Nal]-NH2)		IC50 (D-Ala substituted peptides (Table 2), against [^177Lu]Lu-DOTA-CP04 in A431-CCK-2R cells, read-out: IC50): 0.18 nM; improvement upon the activity of CP04 (versus CP04): greater than 10 fold; affinity exceeding that of the comparative peptide (versus comparative example-1): ~2 fold
CCCC[C@@H](C(=O)N[C@@H](CC(=O)O)C(=O)N[C@@H](Cc1ccc(O)cc1)C(N)=O)N(C)C(=O)[C@H](Cc1c[nH]c2ccccc12)NC(=O)CN(C)C(=O)[C@H](Cc1ccc(O)cc1)NC(=O)[C@H](C)NC(=O)[C@@H](CCC(=O)O)NC(=O)[C@@H](CCC(=O)O)NC(=O)[C@@H](CCC(=O)O)NC(=O)[C@@H](C)NC(=O)[C@@H](CCC(=O)O)NC(=O)[C@H](N)CCC(=O)O [Peptide R] (H-[dE][dE][dA][dE][dE][dE]AY[Sar]W[NMeNle]DY-NH2; N-terminus assumed)	1.15 ± 0.096	
CCCC[C@@H](C(=O)N[C@@H](CC(=O)O)C(=O)N[C@@H](Cc1ccc(F)c(F)c1)C(N)=O)N(C)C(=O)[C@H](Cc1c[nH]c2ccccc12)NC(=O)CN(C)C(=O)[C@H](Cc1ccc(O)cc1)NC(=O)[C@H](C)NC(=O)[C@@H](CCC(=O)O)NC(=O)[C@@H](CCC(=O)O)NC(=O)[C@@H](CCC(=O)O)NC(=O)[C@@H](C)NC(=O)[C@@H](CCC(=O)O)NC(=O)[C@H](N)CCC(=O)O [Peptide S] (H-[dE][dE][dA][dE][dE][dE]AY[Sar]W[NMeNle]D[Phe(3,4-F2)]-NH2; N-terminus assumed)		IC50: 2.66 ± 0.226 nM
CCCC[C@@H](C(=O)N[C@@H](CC(=O)O)C(=O)N[C@@H](Cc1ccc(C#N)cc1)C(N)=O)N(C)C(=O)[C@H](Cc1c[nH]c2ccccc12)NC(=O)CN(C)C(=O)[C@H](Cc1ccc(O)cc1)NC(=O)[C@H](C)NC(=O)[C@@H](CCC(=O)O)NC(=O)[C@@H](CCC(=O)O)NC(=O)[C@@H](CCC(=O)O)NC(=O)[C@@H](C)NC(=O)[C@@H](CCC(=O)O)NC(=O)[C@H](N)CCC(=O)O [Q] (H-[dE][dE][dA][dE][dE][dE]AY[Sar]W[NMeNle]D[Phe(4-CN)]-NH2; N-terminus assumed)	1.57 ± 0.089	
CCCC[C@@H](C(=O)N[C@@H](CC(=O)O)C(=O)N[C@@H](Cc1c(F)c(F)c(F)c(F)c1F)C(N)=O)N(C)C(=O)[C@H](Cc1c[nH]c2ccccc12)NC(=O)CN(C)C(=O)[C@H](Cc1ccc(O)cc1)NC(=O)[C@H](C)NC(=O)[C@@H](CCC(=O)O)NC(=O)[C@@H](CCC(=O)O)NC(=O)[C@@H](CCC(=O)O)NC(=O)[C@@H](C)NC(=O)[C@@H](CCC(=O)O)NC(=O)[C@H](N)CCC(=O)O [T] (H-[dE][dE][dA][dE][dE][dE]AY[Sar]W[NMeNle]D[Phe(F5)]-NH2; N-terminus assumed)	0.607 ± 0.052	
CCCC[C@@H](C(=O)N[C@@H](CC(=O)O)C(=O)N[C@@H](Cc1cccc(F)c1)C(N)=O)N(C)C(=O)[C@H](Cc1c[nH]c2ccccc12)NC(=O)CN(C)C(=O)[C@H](Cc1ccc(O)cc1)NC(=O)[C@H](C)NC(=O)[C@@H](CCC(=O)O)NC(=O)[C@@H](CCC(=O)O)NC(=O)[C@@H](CCC(=O)O)NC(=O)[C@@H](C)NC(=O)[C@@H](CCC(=O)O)NC(=O)[C@H](N)CCC(=O)O [U] (H-[dE][dE][dA][dE][dE][dE]AY[Sar]W[NMeNle]D[Phe(3-F)]-NH2; N-terminus assumed)	0.305 ± 0.013	
CCCC[C@@H](C(=O)N[C@@H](CC(=O)O)C(=O)N[C@@H](Cc1ccc(C(C)=O)cc1)C(N)=O)N(C)C(=O)[C@H](Cc1c[nH]c2ccccc12)NC(=O)CN(C)C(=O)[C@H](Cc1ccc(O)cc1)NC(=O)[C@H](C)NC(=O)[C@@H](CCC(=O)O)NC(=O)[C@@H](CCC(=O)O)NC(=O)[C@@H](CCC(=O)O)NC(=O)[C@@H](C)NC(=O)[C@@H](CCC(=O)O)NC(=O)[C@H](N)CCC(=O)O [V] (H-[dE][dE][dA][dE][dE][dE]AY[Sar]W[NMeNle]D[Phe(4-Ac)]-NH2; N-terminus assumed)	0.948 ± 0.052	
CCCC[C@@H](C(=O)N[C@@H](CC(=O)O)C(=O)N[C@@H](Cc1cccc2ccccc12)C(N)=O)N(C)C(=O)[C@H](Cc1c[nH]c2ccccc12)NC(=O)CN(C)C(=O)[C@H](Cc1ccc(O)cc1)NC(=O)[C@H](C)NC(=O)[C@@H](CCC(=O)O)NC(=O)[C@@H](CCC(=O)O)NC(=O)[C@@H](CCC(=O)O)NC(=O)[C@@H](C)NC(=O)[C@@H](CCC(=O)O)NC(=O)[C@@H](CCC(=O)O)NC(=O)CN1CCN(CC(=O)O)CCN(CC(=O)O)CCN(CC(=O)O)CC1 [^natGa-1, metal not drawn] ({DOTA}-[dE][dE][dA][dE][dE][dE]AY[Sar]W[NMeNle]D[1Nal]-NH2)		IC50 (^natGa chelated DOTA-compounds based on Peptide C (Table 5), read-out: IC50): 0.08 nM
